# From US9464071B2 (priority 2010, dated 2016)
# Values joined by “and” are separate entries in the source; they are usually repeats but may differ in a detail not shown here. Equal entries are not always repeated. Structures can show the parent of a compound that is named as a salt.
row,Compound,melting point
1,COc1cccnc1C#CCN(c1ccc2ncc(-c3cnn(C)c3)nc2c1)c1c(F)c(OC)cc(OC)c1F,202 °C
2,CNC(=O)OCCN(c1cc(OC)cc(OC)c1)c1ccc2ncc(-c3cnn(C)c3)nc2c1,160 to 162 °C
3,COc1cc(OC)cc(N(c2ccc3ncc(-c4cnn(C)c4)nc3c2)C(C)(C)C#Cc2nccc(OC)n2)c1 [Compound 806],182 °C
4,COc1cc(OC)cc(N(CC(=O)Nc2nccc(OC)n2)c2ccc3ncc(-c4cnn(C)c4)nc3c2)c1,241 °C
5,COC(=O)c1ccnc(C#CCN(c2cc(OC)cc(OC)c2)c2ccc3ncc(-c4cnn(C)c4)nc3c2)n1,178 °C
6,COc1ccnc(C#CCN(c2ccc3ncc(-c4cnn(C)c4)nc3c2)c2c(Cl)c(OC)cc(OC)c2Cl)n1,130 °C
7,CNCCN(c1cc(OC)cc(OCCO)c1)c1ccc2ncc(-c3cnn(C)c3)nc2c1,142 °C
8,COc1cc(OC)cc(N(Cc2ccc(Cl)s2)c2ccc3ncc(-c4cn[nH]c4)nc3c2)c1 [Compound 323],166.37 °C
9,COc1cc(OC)cc(N(CC#Cc2cc(Cl)nc(N)n2)c2ccc3ncc(-c4cnn(C)c4)nc3c2)c1,220 °C
10,COc1cc(OC)cc(N(CCNCC(F)F)c2ccc3ncc(-c4cnn(C)c4)nc3c2)c1 [Compound 513],160.65 °C
11,COc1cc(OC)cc(N(CCC#Cc2ccccc2)c2ccc3ncc(-c4cnn(C)c4)nc3c2)c1 [Compound 919],130 °C
12,CCS(=O)(=O)NCCN(c1cc(OC)cc(OC)c1)c1ccc2ncc(-c3cnn(C)c3)nc2c1 [Compound 335],122.79 °C
13,COc1cc(OC)cc(N(Cc2csc(C)n2)c2ccc3ncc(-c4cnn(C)c4)nc3c2)c1 [Compound 263],168.45 °C
14,COc1cc(OC)cc(N(CCCNCC(F)F)c2ccc3ncc(-c4cnn(C)c4)nc3c2)c1 [Compound 717],125 °C
15,[2H]C([2H])([2H])Oc1cc(OC([2H])([2H])[2H])cc(N(c2ccc3ncc(-c4cnn(C)c4)nc3c2)C([2H])([2H])C([2H])([2H])O)c1,149 °C
16,COc1cc(OC)cc(N(CCCNCC(F)(F)F)c2ccc3ncc(-c4cnn(C)c4)nc3c2)c1,123.12 °C and 126 °C
17,Cn1cc(-c2ccc3ncc(N(CC4CC4)c4cccc(OC(F)F)c4)nc3c2)cn1 [Compound 209],166.2 °C

row,Compound,melting point
1,COc1cc(OC)cc(N(CCN2C[C@H](C)C[C@H](C)C2)c2ccc3ncc(-c4cnn(C)c4)nc3c2)c1 [Compound 39],80 °C
2,COc1cc(OC)cc(N(Cc2ccccc2)c2ccc3ncc(-c4cnn(C)c4)nc3c2)c1,133.89 °C
3,COc1cc(OC)cc(N(CCNC(C)C)c2ccc3ncc(-c4cnn(CC5CCOCC5)c4)nc3c2)c1 (as salt: HCl),166 °C
4,COc1cc(OC)cc(N(CCCN2CCC(F)C2)c2ccc3ncc(-c4cnn(C)c4)nc3c2)c1 (centres unmarked),125 °C
5,COc1cc(OC)cc(N(CC2CC2)c2ccc3ncc(-c4cnn(C(C)(C)C(=O)N5CCNCC5)c4)nc3c2)c1,127.97 °C
6,COc1cc(OC)cc(N(CCNCC(O)C(F)(F)F)c2ccc3ncc(-c4cnn(C)c4)nc3c2)c1 (centres unmarked),123 °C
7,"COc1cc(OC)cc(N(CCCN2CCCC2=O)c2ccc3ncc(-c4cnn(C)c4)nc3c2)c1 [Compound 132, 1-(3-{(3,5-Dimethoxyphenyl)[3-(1-methyl-1H-pyrazol-4-yl)quinoxalin-6-yl]amino}propyl)pyrrolidin-2-one]",132.47 °C
8,COc1cc(OC)cc(N(CC#Cc2nccc(OC)n2)c2ccc3ncc(-c4cnn(C)c4)nc3c2)c1,175 °C
9,COc1cc(OC)cc(N(CC#CC2CCN(C(=O)OC(C)(C)C)CC2)c2ccc3ncc(-c4cnn(C)c4)nc3c2)c1,67 °C
10,COc1cc(OC)cc(N(CCCN2CCC(F)(F)C2)c2ccc3ncc(-c4cnn(C)c4)nc3c2)c1 [Compound 602],158.84 °C
11,COc1cc(OC)cc(N(c2ccc3ncc(-c4cnn(C)c4)nc3c2)[C@H]2CC[C@H](NC(C)C)CC2)c1,107 °C
12,COc1cc(OC)cc(N(CC2CC2)c2ccc3ncc(-c4cnn(C(C)(C)C(=O)NCCO)c4)nc3c2)c1,149.27 °C
13,[2H]C([2H])([2H])Oc1cc(OC([2H])([2H])[2H])cc(N(CC#Cc2ccncc2)c2ccc3ncc(-c4cnn(C(C)C)c4)nc3c2)c1,146 °C
14,COc1cc(OC)cc(N(Cc2ccc(Cl)s2)c2ccc3ncc(-c4cnn(C)c4)nc3c2)c1,140.28 °C
15,COc1cc(OC)cc(N(CCN2CCN(CCO)CC2)c2ccc3ncc(-c4cnn(C)c4)nc3c2)c1 [Compound 528],110.16 °C
16,COc1cc(OC)cc(N(Cc2nc(C)c[nH]2)c2ccc3ncc(-c4cnn(C)c4)nc3c2)c1 (as salt: HCl),188 °C
17,CCOc1cc(F)cc(N(CCN)c2ccc3ncc(-c4cnn(C)c4)nc3c2)c1 [Compound 478],70 °C

# The next lines start with the values.
row,melting point,Compound
1,88 °C,COc1cc(OC)cc(N(CC2CN(C(C)C)CCO2)c2ccc3ncc(-c4cnn(C)c4)nc3c2)c1 (centres unmarked)
2,70 °C,CNCCN(c1cc(F)cc(OC)c1)c1ccc2ncc(-c3cnn(C)c3)nc2c1 [Compound 510]
3,143 °C,COc1cc(C#N)cc(N(CC2CC2)c2ccc3ncc(-c4cnn(C)c4)nc3c2)c1
4,80 °C,COc1cc(OCCO)cc(N(CC2CC2)c2ccc3ncc(-c4cnn(C)c4)nc3c2)c1 [Compound 24]
5,149 °C,COc1cc(OC)cc(N(CC2CNCCO2)c2ccc3ncc(-c4cnn(C)c4)nc3c2)c1 (centres unmarked)
6,80 °C,COc1cc(OCCO)cc(N(CC2CC2)c2ccc3ncc(-c4cnn(CCS(C)(=O)=O)c4)nc3c2)c1
7,154.94 °C,COc1cc(OC)cc(N(CC2CCOCC2)c2ccc3ncc(-c4cnn(C)c4)nc3c2)c1 [Compound 356]
8,151 °C,COc1cc(OC)cc(N(CCN2CCC(CN)CC2)c2ccc3ncc(-c4cnn(C)c4)nc3c2)c1 (as salt: HCl)
9,177 °C,CONCCN(c1cc(OC)cc(OC)c1)c1ccc2ncc(-c3cnn(C)c3)nc2c1
10,154.05 °C and 154 °C,COc1cc(OC)cc(N(CC2CC2)c2ccc3ncc(-c4cnn(CC(O)CO)c4)nc3c2)c1 (centres unmarked) [Compound 37]
11,194 °C,CN(C)c1cccc(N(CC2CC2)c2ccc3ncc(-c4cnn(C)c4)nc3c2)c1 [Compound 883]
12,221 °C and 220.78 °C,COc1cc(OC)cc(N(CC2CC2)c2ccc3ncc(-c4cnn(CCC5CCNCC5)c4)nc3c2)c1
13,163 °C and 165 °C,COc1cc(OC)cc(N(CC2CC2)c2ccc3ncc(-c4cnn(S(=O)(=O)N(C)C)c4)nc3c2)c1 [Compound 58]
14,207.88 °C,COc1cc(OC)cc(N(CC2CC2)c2ccc3ncc(-c4cnn(S(C)(=O)=O)c4)nc3c2)c1
15,146 °C,C=Cc1cc(OC)cc(N(CC2CC2)c2ccc3ncc(-c4cnn(C)c4)nc3c2)c1
16,99 °C and 99.31 °C,COc1cc(OC)cc(N(CC(O)CN)c2ccc3ncc(-c4cnn(C)c4)nc3c2)c1 (centres unmarked) [Compound 125]
17,80 °C,COc1cc(OCCO)cc(N(CC2CC2)c2ccc3ncc(-c4cn[nH]c4)nc3c2)c1
18,262.42 °C,CNC(=O)c1cc(OC)cc(N(CC2CC2)c2ccc3ncc(-c4cn[nH]c4)nc3c2)c1 [Compound 311]
19,> 260 °C,COc1cc(OC)cc(N(CCP(=O)(O)O)c2ccc3ncc(-c4cnn(C)c4)nc3c2)c1 (as salt: HBr)
